Broadly, the solubility (kinetic) is the concentration staying in solution when a stock, usually in DMSO, is diluted into the medium.

SMILES strings stand for the structures. ≈ marks a conversion by molar mass, not a printed value.

The conditions of the data set: buffer; pH 7.4; 200.0 µM.
As for `S=C(Nc1cccc(Cl)c1)N1CCN(c2ccccn2)CC1`, the kinetic solubility turned out to be 0.5 µg/mL (≈ 1.5 µM).

On to `Cc1cc(-c2nc3ccccc3c(=O)o2)ccc1[N+](=O)[O-]`, for which the kinetic solubility is less than 0.3 µg/mL. Take `COc1ccc(OC)c(N(CC(=O)N2CCOCC2)S(C)(=O)=O)c1`: the kinetic solubility was more than 53.8 µg/mL.

For `COc1cccc(COC(=O)Nc2ccccc2F)c1`, the solubility (kinetic) came to 18.9 µg/mL (≈ 68.7 µM). `CCN1CCc2c(C#N)c(NCc3ccccc3)nc(NCCO)c2C1` returned a kinetic solubility of 6.3 µg/mL (≈ 17.9 µM). As for `Cc1ccc(C)c(OC(C)C(=O)Nc2nccs2)c1` (configuration not stated), the kinetic solubility came out at 32.8 µg/mL (≈ 119 µM).

`Cc1nc2c(C)cccc2c2c1CCS2`: the solubility (kinetic) came to 0.5 µg/mL (≈ 2.32 µM). On to `COc1ccc(F)cc1S(=O)(=O)NCCCn1ccnc1`, for which the solubility (kinetic) is more than 47 µg/mL. The value for `O=C(Nc1cccc(F)c1)c1ccco1` was 26.7 µg/mL (≈ 130 µM); that for `COc1ccc(C(CC(=O)N2CCCC2)c2ccc(F)cc2)cc1` (configuration not stated) was 44.3 µg/mL (≈ 135 µM).

As to `CCOc1cnc(-c2c(-c3c(F)cccc3Cl)noc2C)o1`, the kinetic solubility was 9.1 µg/mL (≈ 28.2 µM). With `C[C@H](NCc1c[nH]c2ccccc12)c1ccccc1`, the kinetic solubility is more than 37.6 µg/mL. `Cc1cc(C)c(NC(=O)c2ccc3nccnc3c2)c(C)c1` displayed a solubility (kinetic) of 41.5 µg/mL (≈ 142 µM). The value for `COc1ccc(OC)c(Nc2nc(C)nc3c2oc2ccccc23)c1` was less than 0.2 µg/mL; that for `Nc1cc(=O)[nH]c(SCc2cccc3ccccc23)n1` was 4 µg/mL (≈ 14.1 µM); that for `COc1cccc(NC(=O)C(=O)NCCc2ccc(F)cc2)c1` was less than 0.3 µg/mL. Molecule `O=C(Nc1nccs1)c1ccccc1Br` gave a solubility (kinetic) of 6.2 µg/mL (≈ 21.9 µM). For the molecule `Cc1cccc(NC(=S)N(C)C2CCCCC2)c1`, the kinetic solubility is 30.1 µg/mL (≈ 115 µM). In turn, `CC(OC(=O)c1nsc(Cl)c1Cl)C(=O)NC1CCCCC1` (configuration not stated) yielded a kinetic solubility of 31.6 µg/mL (≈ 90 µM). The result for `Cc1cc(C)c(NC(=S)NCCCSC2CCCCC2)c(C)c1` reads 6.1 µg/mL (≈ 17.4 µM); that for `O=C(Nc1ccc2c(c1)OCCO2)c1ccccc1`, more than 38.3 µg/mL; that for `COc1ccc(C(C)=O)cc1COc1cccc2cccnc12`, 15.7 µg/mL (≈ 51.1 µM).

Molecule `CC(=O)c1cccc(NC(=O)Nc2nc(C)cc(C)n2)c1` yielded a kinetic solubility of 1.8 µg/mL (≈ 6.33 µM). The value for `CCOC(=O)/C=C/C(=O)Nc1ccc(Oc2ccccc2)cc1` was 3.8 µg/mL (≈ 12.2 µM). As for `CC(Cc1ccccc1)NC(=O)c1ccc(N)cc1` (configuration not stated), the kinetic solubility is more than 38.1 µg/mL.

For the molecule `CCOC(=O)c1nn(-c2ccc3c(c2)OCCO3)cc1O`, the kinetic solubility is more than 43.5 µg/mL. `O=C(c1c(F)c(F)c(F)c(F)c1F)N1CCN(Cc2ccc3c(c2)OCO3)CC1` returned a solubility (kinetic) of 2.3 µg/mL (≈ 5.55 µM).

As to `CCOC(=O)CNC(=O)c1cnc(Nc2ccccc2OC)c2ccccc12`, the kinetic solubility was found to be 5.4 µg/mL (≈ 14.2 µM). For `Cc1ccc(S(=O)(=O)CC(=O)Nc2ccc(F)c(F)c2F)cc1`, the kinetic solubility was 4.8 µg/mL (≈ 14 µM). In turn, `CNC(=S)N1CCN(c2nc3ccccc3s2)CC1` gave a solubility (kinetic) of 4 µg/mL (≈ 13.7 µM). `CCOCCCNC(=O)c1cc2c(s1)-c1ccccc1SC2` displayed a solubility (kinetic) of 27.6 µg/mL (≈ 82.8 µM). The result for `Cn1c(=NC(=O)COc2ccccc2)sc2cc(F)cc(F)c21` reads less than 0.4 µg/mL; that for `O=C(CSc1nnc(-c2ccccn2)o1)Nc1ccc(F)cc1`, more than 49.6 µg/mL. `C#CC(CC)(CC)NC(=O)/C=C/C(=O)O` gave a solubility (kinetic) of 27.7 µg/mL (≈ 132 µM). As for `Cc1cc(C)cc(NC2=C(N)C(=O)c3ccccc3C2=O)c1`, the solubility (kinetic) is 0.4 µg/mL (≈ 1.37 µM). The value for `CC(=O)c1cccc(NC(=O)c2ccccc2-c2ccccc2C(=O)O)c1` was more than 53.9 µg/mL; that for `CCC1CCCCN1Cc1c(O)ccc2c(=O)c(-c3ccccc3OC)coc12` (configuration not stated) was 51.3 µg/mL (≈ 130 µM). With `CC(=O)Oc1ccc(C(=O)NCc2ccc3c(c2)OCO3)cc1`, the solubility (kinetic) was found to be 29.1 µg/mL (≈ 92.9 µM). Take `O=c1cc(-c2ccccc2)nc(/C=C/c2ccccc2)[nH]1`: the solubility (kinetic) was determined as 0.4 µg/mL (≈ 1.46 µM). In turn, `O=C(Nc1ccc(Cl)c(S(=O)(=O)N2CCOCC2)c1)c1ccncc1` gave a kinetic solubility of more than 57.3 µg/mL.

`COc1ccccc1OCCNC(=O)c1ccc2c(c1)CCC2` showed a solubility (kinetic) of 42.2 µg/mL (≈ 136 µM). Molecule `Cc1ccc(S(=O)(=O)NCC(=O)Nc2ccc3c(c2)OCO3)cc1` gave a kinetic solubility of 49.4 µg/mL (≈ 142 µM). In the case of `O=C(O)c1cc(-c2cccc3ccccc23)nc2ccccc12`, the kinetic solubility was more than 44.9 µg/mL. Molecule `COC(=O)c1cnn2c1C(=O)N(Cc1cccs1)CC2` had a solubility (kinetic) of more than 43.7 µg/mL.

As for `CN1CC(=O)Nc2ccccc2C1=O`, the solubility (kinetic) is more than 28.5 µg/mL.

In turn, `CN(C)C(CNc1ncccn1)c1ccccc1` (configuration not stated) showed a kinetic solubility of 32.6 µg/mL (≈ 135 µM). In turn, `CCOc1ccc(S(=O)(=O)N2CN3CCN(C3)C2)cc1` displayed a solubility (kinetic) of more than 44.6 µg/mL.

On to `O=C1NC(=O)N(CCC2=CCCCC2)C(=O)/C1=C/c1cccs1`, for which the solubility (kinetic) came out at 26.1 µg/mL (≈ 79 µM). For the molecule `O=S(=O)(c1ccc(-c2ccon2)s1)N1CCN(c2ccncc2)CC1`, the kinetic solubility came out at 37.8 µg/mL (≈ 100 µM). With `Cc1cccc(N2C(=O)/C(=C/N3CCN(C(=O)c4ccco4)CC3)C(=O)NC2=S)c1`, the kinetic solubility is 2.6 µg/mL (≈ 6.13 µM). In the case of `O=C(COC(=O)c1ccccc1O)NC1CCCc2ccccc21` (configuration not stated), the kinetic solubility turned out to be 4.6 µg/mL (≈ 14.1 µM). The result for `O=C(c1cc2cc(Cl)ccc2[nH]1)N1CCc2ccccc2C1` reads 0.9 µg/mL (≈ 2.9 µM).

Values taken from PubChem BioAssay AID1996.
